Calls of active or inactive are those of the source. No cut-off for these calls is given here.
Key:
mTORC1 (Homo sapiens) [1] = target: T1, mTORC1 (Homo sapiens) (UniProt P42345+Q8N122+Q9BVC4); assay: Inhibition of mTORC1 in human LY7 cells assessed as reduction in 4E-BP1 phosphorylation at 3 uM measured after 24 hrs in presence of bortezomib by Western blot analysis; format: cell-based
PF-382 = assay: Induction of apoptosis in human PF-382 cells assessed as increase in cleaved-PARP expression at 5 uM measured after 24 hrs in presence of bortezomib by Western blot analysis; format: functional, cell-based
mTORC1 (Homo sapiens) [2] = target: T1, mTORC1 (Homo sapiens); assay: Inhibition of mTORC1 in human CLL cells assessed as reduction in c-Myc expression at 5 uM measured after 24 hrs in presence of bortezomib by Western blot analysis; format: cell-based; conditions: CLL cell
mTORC1 (Homo sapiens) [3] = target: T1, mTORC1 (Homo sapiens); assay: Inhibition of mTORC1 in human SLL cells assessed as reduction in 4E-BP1 phosphorylation at 5 uM measured after 24 hrs in presence of bortezomib by Western blot analysis; format: cell-based
[4] = target: T2, Casein kinase I isoform epsilon (Homo sapiens, UniProt P49674); assay: Inhibition of CK1epsilon in human LY7 cells assessed as reduction in CK1epsilon autophosphorylation at 25 uM preincubated for 1 hr followed by addition of PP2A inhibitor calyculin A and measured after 15 to 60 mins by Western blot analysis; format: cell-based; conditions: time lower 75.0 min, time upper […]
Target sequence in this assay (P49674 whole entry, looked up, canonical isoform): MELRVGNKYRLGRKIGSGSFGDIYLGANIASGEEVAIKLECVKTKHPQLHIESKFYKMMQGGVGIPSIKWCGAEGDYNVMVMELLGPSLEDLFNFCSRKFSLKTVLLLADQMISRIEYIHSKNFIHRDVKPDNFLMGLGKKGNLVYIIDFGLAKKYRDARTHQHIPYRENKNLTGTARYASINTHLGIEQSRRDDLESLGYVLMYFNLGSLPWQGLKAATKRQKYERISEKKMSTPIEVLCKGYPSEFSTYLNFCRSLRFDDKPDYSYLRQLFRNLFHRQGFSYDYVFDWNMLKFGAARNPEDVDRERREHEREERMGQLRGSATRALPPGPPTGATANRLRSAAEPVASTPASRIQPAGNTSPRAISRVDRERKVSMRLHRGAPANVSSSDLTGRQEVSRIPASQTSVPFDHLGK

LY7 = assay: Induction of apoptosis in human LY7 cells assessed as increase in cleaved-PARP expression at 3 uM measured after 24 hrs in presence of bortezomib by Western blot analysis; format: functional, cell-based
[5] = target: Myc proto-oncogene protein (Homo sapiens) (UniProt P01106); assay: Inhibition of c-Myc in human LY7 cells assessed as reduction in eIF4B expression at 3 uM incubated for 24 hrs in presence of bortezomib by Western blot analysis; format: cell-based
[6] = target: T3, Phosphatidylinositol 4,5-bisphosphate 3-kinase catalytic subunit delta isoform (Homo sapiens) (UniProt O00329); assay: Inhibition of PI3Kdelta in human Jurkat cells assessed as reduction in AKT phosphorylation at S473 residue at 1 uM measured after 4 hrs relative to control; format: cell-based
T3 sequence (whole entry): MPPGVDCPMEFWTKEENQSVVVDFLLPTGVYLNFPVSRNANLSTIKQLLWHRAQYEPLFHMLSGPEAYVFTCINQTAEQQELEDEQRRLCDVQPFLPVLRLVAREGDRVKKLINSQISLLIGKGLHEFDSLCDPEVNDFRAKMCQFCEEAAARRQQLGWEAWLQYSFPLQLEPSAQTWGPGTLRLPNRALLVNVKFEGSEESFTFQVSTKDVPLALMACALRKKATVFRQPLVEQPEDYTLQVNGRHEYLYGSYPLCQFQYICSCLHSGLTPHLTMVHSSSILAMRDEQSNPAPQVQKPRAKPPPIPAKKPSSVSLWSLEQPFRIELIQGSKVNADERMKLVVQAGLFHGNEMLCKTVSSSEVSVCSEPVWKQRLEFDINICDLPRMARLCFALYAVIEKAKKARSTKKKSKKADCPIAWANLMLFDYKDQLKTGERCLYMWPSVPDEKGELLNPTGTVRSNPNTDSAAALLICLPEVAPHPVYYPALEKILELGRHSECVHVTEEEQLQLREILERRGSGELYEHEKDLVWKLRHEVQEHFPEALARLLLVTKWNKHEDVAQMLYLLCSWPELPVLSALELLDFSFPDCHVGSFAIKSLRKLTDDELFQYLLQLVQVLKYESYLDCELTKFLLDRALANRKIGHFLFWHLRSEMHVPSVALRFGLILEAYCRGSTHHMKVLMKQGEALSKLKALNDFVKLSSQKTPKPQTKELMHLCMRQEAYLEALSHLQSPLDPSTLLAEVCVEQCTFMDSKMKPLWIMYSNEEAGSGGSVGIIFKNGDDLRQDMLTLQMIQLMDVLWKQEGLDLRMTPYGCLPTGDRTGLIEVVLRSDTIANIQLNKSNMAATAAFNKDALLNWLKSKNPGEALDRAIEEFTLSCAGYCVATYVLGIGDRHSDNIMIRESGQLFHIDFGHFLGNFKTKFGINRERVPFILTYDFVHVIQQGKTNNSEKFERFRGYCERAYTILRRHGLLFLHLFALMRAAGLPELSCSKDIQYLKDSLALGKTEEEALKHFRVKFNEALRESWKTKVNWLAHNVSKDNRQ

[7] = target: Myc proto-oncogene protein (Homo sapiens) (UniProt P01106); assay: Inhibition of c-Myc in human LY7 cells assessed as reduction in E2F1 expression at 3 uM incubated for 24 hrs in presence of carfilzomib by Western blot analysis; format: cell-based
[8] = target: T3, Phosphatidylinositol 4,5-bisphosphate 3-kinase catalytic subunit delta isoform (Homo sapiens); assay: Inhibition of PI3Kdelta in human THP-1 cells assessed as reduction in AKT phosphorylation at S473 residue measured after 4 hrs; format: cell-based; conditions: dose 10-10000 nM
[9] = target: T2, Casein kinase I isoform epsilon; assay: Inhibition of recombinant human full-length N-terminal GST-tagged CK1epsilon expressed in baculovirus infected Sf9 insect cells using casein as substrate measured after 60 mins by ADP-glo kinase assay
Target sequence in this assay (P49674 whole entry, canonical isoform): as the sequence (P49674 whole entry, looked up, canonical isoform) above

[10] = target: Myc proto-oncogene protein (Homo sapiens) (UniProt P01106); assay: Inhibition of c-Myc in human LY7 cells assessed as reduction in eIF4B expression at 3 uM incubated for 24 hrs in presence of carfilzomib by Western blot analysis; format: cell-based
[11] = target: T3, Phosphatidylinositol 4,5-bisphosphate 3-kinase catalytic subunit delta isoform (Homo sapiens); assay: Inhibition of PI3Kdelta in human Jurkat cells assessed as reduction in AKT phosphorylation at S473 residue measured after 4 hrs; format: cell-based; conditions: dose 10-10000 nM
mTORC1 (Homo sapiens) [12] = target: T1, mTORC1 (Homo sapiens); assay: Inhibition of mTORC1 in human LY7 cells assessed as reduction in 4E-BP1 phosphorylation at 3 uM measured after 24 hrs in presence of carfilzomib by Western blot analysis; format: cell-based
mTORC1 (Homo sapiens) [13] = target: T1, mTORC1 (Homo sapiens); assay: Inhibition of mTORC1 in human NCI-H929 cells assessed as reduction in 4E-BP1 phosphorylation at 5 uM measured after 24 hrs in presence of carfilzomib by Western blot analysis; format: cell-based
mTORC1 (Homo sapiens) [14] = target: T1, mTORC1 (Homo sapiens); assay: Inhibition of mTORC1 in human OCILY7 cells transfected with empty vector assessed as reduction in endogenous c-Myc expression at 3 to 5 uM incubated for 24 hrs in presence of carfilzomib by Western blot analysis; format: cell-based; conditions: dose 3-5 µM
mTORC1 (Homo sapiens) [15] = target: T1, mTORC1 (Homo sapiens); assay: Inhibition of mTORC1 in human LY10 cells assessed as reduction in 4E-BP1 phosphorylation at 3 uM measured after 24 hrs in presence of carfilzomib by Western blot analysis; format: cell-based
mTORC1 (Homo sapiens) [16] = target: T1, mTORC1 (Homo sapiens); assay: Inhibition of mTORC1 in human PF-382 cells assessed as reduction in c-Myc expression at 5 uM measured after 24 hrs in presence of carfilzomib by Western blot analysis; format: cell-based
mTORC1 (Homo sapiens) [17] = target: T1, mTORC1 (Homo sapiens); assay: Inhibition of mTORC1 in human NCI-H929 cells assessed as reduction in c-Myc expression at 5 uM measured after 24 hrs by Western blot analysis; format: cell-based
[18] = target: Myc proto-oncogene protein (Homo sapiens) (UniProt P01106); assay: Inhibition of c-Myc in human LY10 cells assessed as reduction in eIF4B expression at 3 uM incubated for 24 hrs in presence of carfilzomib by Western blot analysis; format: cell-based
mTORC1 (Homo sapiens) [19] = target: T1, mTORC1 (Homo sapiens); assay: Inhibition of mTORC1 in human CLL cells assessed as reduction in 4E-BP1 phosphorylation at 5 uM measured after 24 hrs in presence of carfilzomib by Western blot analysis; format: cell-based; conditions: CLL cell
[20] = target: Myc proto-oncogene protein (Homo sapiens) (UniProt P01106); assay: Inhibition of c-Myc in human LY10 cells assessed as reduction in E2F1 expression at 3 uM incubated for 24 hrs in presence of carfilzomib by Western blot analysis; format: cell-based

Sequence of Myc proto-oncogene protein (Homo sapiens) (P01106 whole entry, canonical isoform): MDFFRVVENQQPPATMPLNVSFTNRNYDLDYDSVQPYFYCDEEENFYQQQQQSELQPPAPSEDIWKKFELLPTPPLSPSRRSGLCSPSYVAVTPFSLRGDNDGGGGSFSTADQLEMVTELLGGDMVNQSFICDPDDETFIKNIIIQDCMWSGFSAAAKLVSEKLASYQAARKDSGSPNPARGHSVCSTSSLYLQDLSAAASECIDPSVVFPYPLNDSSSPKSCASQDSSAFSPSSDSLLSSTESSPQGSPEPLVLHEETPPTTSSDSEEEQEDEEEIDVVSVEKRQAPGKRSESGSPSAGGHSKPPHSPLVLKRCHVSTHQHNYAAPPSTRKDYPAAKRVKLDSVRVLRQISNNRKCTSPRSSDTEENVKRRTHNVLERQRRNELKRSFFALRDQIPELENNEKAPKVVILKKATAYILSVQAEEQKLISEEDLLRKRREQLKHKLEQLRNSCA
T1 sequence (Q8N122 whole entry, looked up, other chains not shown): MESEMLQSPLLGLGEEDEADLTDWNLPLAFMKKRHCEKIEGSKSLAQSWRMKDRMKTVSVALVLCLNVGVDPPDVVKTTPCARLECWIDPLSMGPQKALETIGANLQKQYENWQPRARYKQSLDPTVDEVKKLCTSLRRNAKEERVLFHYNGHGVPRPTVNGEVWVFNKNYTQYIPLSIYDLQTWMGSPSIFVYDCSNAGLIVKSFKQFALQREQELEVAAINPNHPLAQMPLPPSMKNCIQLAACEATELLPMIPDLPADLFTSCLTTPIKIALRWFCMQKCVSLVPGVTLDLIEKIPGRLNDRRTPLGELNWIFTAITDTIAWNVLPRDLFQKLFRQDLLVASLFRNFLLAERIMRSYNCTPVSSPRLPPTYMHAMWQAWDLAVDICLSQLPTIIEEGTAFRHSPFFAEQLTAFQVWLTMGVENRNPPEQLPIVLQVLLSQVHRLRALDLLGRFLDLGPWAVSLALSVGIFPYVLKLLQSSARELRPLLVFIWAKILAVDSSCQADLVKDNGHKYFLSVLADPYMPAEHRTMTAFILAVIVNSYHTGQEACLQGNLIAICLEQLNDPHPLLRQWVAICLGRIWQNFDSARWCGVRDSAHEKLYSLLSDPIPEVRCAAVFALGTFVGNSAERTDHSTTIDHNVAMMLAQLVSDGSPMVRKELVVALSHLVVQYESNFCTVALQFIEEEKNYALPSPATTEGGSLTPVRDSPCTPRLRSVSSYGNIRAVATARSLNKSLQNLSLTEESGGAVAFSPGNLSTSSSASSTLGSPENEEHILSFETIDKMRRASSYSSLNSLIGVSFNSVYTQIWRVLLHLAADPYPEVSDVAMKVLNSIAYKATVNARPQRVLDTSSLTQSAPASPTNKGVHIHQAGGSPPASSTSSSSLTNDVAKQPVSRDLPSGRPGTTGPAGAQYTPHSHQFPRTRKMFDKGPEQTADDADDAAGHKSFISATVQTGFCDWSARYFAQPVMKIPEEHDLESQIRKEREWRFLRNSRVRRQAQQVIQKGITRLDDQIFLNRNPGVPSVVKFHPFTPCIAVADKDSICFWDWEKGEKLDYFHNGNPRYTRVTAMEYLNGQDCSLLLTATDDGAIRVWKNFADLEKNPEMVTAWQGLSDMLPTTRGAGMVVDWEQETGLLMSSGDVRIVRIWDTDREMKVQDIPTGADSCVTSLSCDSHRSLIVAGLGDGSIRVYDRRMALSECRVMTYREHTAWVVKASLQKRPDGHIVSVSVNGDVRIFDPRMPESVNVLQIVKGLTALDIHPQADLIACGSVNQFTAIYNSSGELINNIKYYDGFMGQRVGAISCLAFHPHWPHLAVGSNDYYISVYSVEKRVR
T1 sequence (Q9BVC4 whole entry, looked up, other chains not shown): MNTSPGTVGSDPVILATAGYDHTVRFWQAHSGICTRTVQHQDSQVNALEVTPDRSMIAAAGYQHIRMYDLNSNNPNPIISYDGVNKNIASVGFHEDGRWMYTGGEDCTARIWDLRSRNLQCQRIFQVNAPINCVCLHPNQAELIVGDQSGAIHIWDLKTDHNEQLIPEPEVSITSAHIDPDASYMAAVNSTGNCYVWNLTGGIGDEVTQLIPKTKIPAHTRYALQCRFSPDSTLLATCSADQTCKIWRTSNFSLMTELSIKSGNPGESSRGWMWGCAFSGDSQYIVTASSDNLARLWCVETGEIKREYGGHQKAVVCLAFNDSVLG

CC[C@H](Nc1ncnc2[nH]cnc12)c1nc2cccc(F)c2c(=O)n1-c1ccccc1
inhibition (mTORC1 (Homo sapiens) [1]): inactive
Activity (PF-382): Active
inhibition (mTORC1 (Homo sapiens) [2]): inactive
inhibition (mTORC1 (Homo sapiens) [3]): inactive
inhibition [4]: inactive
Activity (LY7): Active
inhibition [5]: inactive

CC(C)Oc1ccc(-c2nn([C@@H](C)c3oc4ccc(F)cc4c(=O)c3-c3cccc(F)c3)c3ncnc(N)c23)cc1F [UMBRALISIB]
inhibition [6]: 43%
inhibition [7]: Active
inhibition [8]: Dose-Dependent Effect
EC50 [9]: 6 µM
inhibition [10]: Active
inhibition [11]: Dose-Dependent Effect
inhibition (mTORC1 (Homo sapiens) [12]): Active
inhibition (mTORC1 (Homo sapiens) [13]): Active
inhibition (mTORC1 (Homo sapiens) [14]): Active
inhibition (mTORC1 (Homo sapiens) [15]): Active
inhibition (mTORC1 (Homo sapiens) [16]): Active
inhibition (mTORC1 (Homo sapiens) [17]): inactive
inhibition [18]: Active
inhibition (mTORC1 (Homo sapiens) [19]): Active
inhibition [20]: Active
